Experimental data reported in US10842149B2, “Water conditioning adjuvant compositions and related methods for reducing herbicide volatility” (BOARD OF TRUSTEES OF MICHIGAN STATE UNIVERSITY, priority 2017, dated 2020).
Like-named read-outs stand apart in the source and are kept apart here.

Experiments:
GIANT FOXTAIL = experiment: Effect of DTPA, EDTA and other adjuvants on glyphosate efficacy on giant foxtail (% control); assay type: in vivo; details: combined experiments 1 and 2, 10 gpa, 25 psi
VELVETLEAF = experiment: Effect of DTPA on glyphosate efficacy on velvetleaf (% control); assay type: in vivo; details: Table 3, combined experiments 1, 2 and 3, 10 gpa, 25 psi, glyphosate 0.25 lb a.e./A
[1] = approximate values given by way of illustration; cited from earlier work
TOMATO = details: for % INJURY 7 DAT: rated 7 DAT; for % INJURY 10 DAT: rated 10 DAT; for % INJURY 14 DAT: rated 14 DAT; for % INJURY 21 DAT: rated 21 DAT; for % INJURY 28 DAT: rated 28 DAT
Source text: Reduction in herbicide volatility can be characterized using the procedure generally set forth in Penner U.S. Publication No. 2016/0255832, which includes a bioassay system for evaluating herbicide volatilization from plant substrates (e.g., using wheat and soybean plants or equivalent in a plant growth chamber with a selected adjuvant/herbicide composition including a volatile growth regulator herbicide and an aminopolycarboxylate salt). A wide range of soil, plant, environmental, and herbicide factors (e.g., vapor pressure and water solubility of herbicide, surface characteristics) can affect herbicide volatility from soils and plants. Comparison of the volatilization would be most readily visualized by appropriate bioassay systems. In the bioassay system, a herbicide composition including a volatile growth regulator herbicide (e.g., 2,4-D, dicamba, or otherwise) and optionally one or more adjuvants (e.g., including an aminopolycarboxylate salt or not) is applied foliarly to a target plant generally resistant to the herbicide (e.g., wheat plants, such as amber red wheat) or is applied to a target soil area without a target plant. Twenty minutes later, soybean plants (e.g., PIONEER 92M92 soybean plants) or other plants sensitive to the volatile growth regulator herbicide are placed in the middle of the sprayed target plants and/or soil.
The following examples illustrate the disclosed compositions and methods, but are not intended to limit the scope of any claims thereto. […] In the examples of Tables 1-3, target weeds were initially treated with glyphosate and any additional adjuvants as indicated in the tables. […] In the examples of Table 4, target soil was initially treated with dicamba and any additional adjuvants as indicated in the table, and then tomato plants were inserted into a ring of the treated soil for 24 hours. After 24 hours of sitting in the treated soil (i.e., during which time any volatilized herbicide from the soil could contact the tomato plants), the tomato plants were removed from the treated soil and grown on a laboratory bench.

[2] = pH of the treatment solutions (Table 3); assay type: physicochemical; details: pH of treatment solution, DTPA treatments adjusted with KOH (5N)
[3] = Table 1, glyphosate 0.20 (Run 1) / 0.25 (Run 2) lb a.e./A, pH adjusted to 5.5 with KOH
[4] = Table 1, glyphosate 0.20 / 0.25 lb a.e./A
[5] = Table 2, glyphosate 0.275 (exp 1) / 0.20 (exp 2) lb a.e./A
[6] = Table 2, glyphosate 0.275 / 0.20 lb a.e./A
[7] = tomato in treated soil ring: duration, dicamba 0.50 lb a.e./A
[8] = tomato inserted 1 DAT (in 1st DAT out 2nd DAT), 24 hours
[9] = tomato inserted 2 DAT (in 2nd DAT out 3rd DAT), 24 hours
[10] = tomato inserted 3 DAT (in 3rd DAT out 4th DAT), 24 hours
[11] = tomato inserted 4 DAT (in 4th DAT out 5th DAT), 24 hours
[12] = tomato inserted 7 DAT (in 7th DAT out 8th DAT), 24 hours

Q: Which results are given for `O=C(O)CN(CCN(CC(=O)O)CC(=O)O)CCN(CC(=O)O)CC(=O)O` [1.0% w/v DTPA, Diethylenetriaminepentaacetic acid]?
A: % CONTROL 7 DAT (GIANT FOXTAIL; [3]): 1%; % CONTROL 10 DAT (GIANT FOXTAIL; [4]): 5%; % CONTROL 14 DAT (GIANT FOXTAIL; [4]): 6%; % CONTROL 21 DAT (GIANT FOXTAIL; [4]): 1%; % CONTROL 7 DAT (GIANT FOXTAIL; [5]): 0%; % CONTROL 10 DAT (GIANT FOXTAIL; [6]): 0%; % CONTROL 14 DAT (GIANT FOXTAIL; [6]): 0%; % CONTROL 21 DAT (GIANT FOXTAIL; [6]): 3%; % CONTROL 7 DAT (VELVETLEAF): 0%; % CONTROL 10 DAT (VELVETLEAF): 0%; % CONTROL 14 DAT (VELVETLEAF): 5%; % CONTROL 21 DAT (VELVETLEAF): 0%

Q: For `O=C(O)CN(CCN(CC(=O)O)CC(=O)O)CC(=O)O` [1.0% w/v EDTA, Ethylenediaminetetraacetic acid], which “% CONTROL 7 DAT” value (GIANT FOXTAIL; [5]) is on record?
A: Its value is 0%.

Q: What about the “% CONTROL 10 DAT” value (GIANT FOXTAIL; [6]) of the same compound?
A: The value was 0%.

Q: And the “% CONTROL 14 DAT” value (GIANT FOXTAIL; [6])?
A: Its value is 0%.

Q: What about the “% CONTROL 21 DAT” value (GIANT FOXTAIL; [6]) of the same compound?
A: Its value is 3%.

Q: What does the source list for `O=C(O)CN(CCN(CC(=O)O)CC(=O)O)CC(=O)O` [2 0% w/v EDTA, Ethylenediaminetetraacetic acid]?
A: % CONTROL 7 DAT (GIANT FOXTAIL; [5]): 0%; % CONTROL 10 DAT (GIANT FOXTAIL; [6]): 0%; % CONTROL 14 DAT (GIANT FOXTAIL; [6]): 0%; % CONTROL 21 DAT (GIANT FOXTAIL; [6]): 0%

Q: Which vapor pressure [1] does the source give for `CCCCC(CC)COC(=O)COc1ccc(Cl)cc1Cl` (centres unmarked) [2,4-D 2-ethylhexyl ester] here?
A: Its vapor pressure is ~4.8×10^−4 Pa.

Q: With `CCCCOCCOC(=O)COc1ccc(Cl)cc1Cl` [2,4-D butoxyethyl ester] as the compound, how does the vapor pressure [1] read?
A: Its vapor pressure is ~3.2×10^−4 Pa.

Q: With `CNC.O=C(O)COc1ccc(Cl)cc1Cl` [2,4-D dimethylamine salt] as the compound, how does the vapor pressure [1] read?
A: The vapor pressure was ~1.3×10^−5 Pa.

Q: With `CC(C)OC(=O)COc1ccc(Cl)cc1Cl` [2,4-D isopropyl ester] as the compound, how does the vapor pressure [1] read?
A: Its vapor pressure is ~1.9×10^1 Pa.

Q: Which “% CONTROL 7 DAT” value (GIANT FOXTAIL; [5]) does the source give for `O=C(O)CN(CCN(CC(=O)O)CC(=O)O)CCN(CC(=O)O)CC(=O)O` [2.0% w/v DTPA, Diethylenetriaminepentaacetic acid] here?
A: Its value is 0%.

Q: What about the “% CONTROL 10 DAT” value (GIANT FOXTAIL; [6]) of the same compound?
A: The value was 3%.

Q: And the “% CONTROL 14 DAT” value (GIANT FOXTAIL; [6])?
A: The value was 0%.

Q: And the “% CONTROL 21 DAT” value (GIANT FOXTAIL; [6])?
A: Its value is 3%.

Q: Which results are given for `COc1c(Cl)ccc(Cl)c1C(=O)O` [DICAMBA DGA, 3,6-dichloro-2-methoxybenzoic acid]?
A: % INJURY 7 DAT (TOMATO; tomato in treated soil ring: duration, dicamba 0.50 lb a.e./A on bare field soil kept wet, 20 gpa, 25 psi): 25%; % INJURY 10 DAT (TOMATO; [7]): 27%; % INJURY 14 DAT (TOMATO; [7]): 30%; % INJURY 21 DAT (TOMATO; [7]): 27%; % INJURY 28 DAT (TOMATO; [7]): 27%; % INJURY 7 DAT (TOMATO; tomato inserted 1 DAT (in 1st DAT out 2nd DAT), 24 hours, dicamba 0.50 lb a.e./A): 33%; % INJURY 10 DAT (TOMATO; [8]): 37%; % INJURY 14 DAT (TOMATO; [8]): 35%; % INJURY 21 DAT (TOMATO; [8]): 32%; % INJURY 28 DAT (TOMATO; [8]): 25%; % INJURY 7 DAT (TOMATO; [9]): 13%; % INJURY 10 DAT (TOMATO; [9]): 23%; % INJURY 14 DAT (TOMATO; [9]): 20%; % INJURY 21 DAT (TOMATO; [9]): 15%; % INJURY 28 DAT (TOMATO; [9]): 18%; % INJURY 7 DAT (TOMATO; [10]): 20%; % INJURY 10 DAT (TOMATO; [10]): 22%; % INJURY 14 DAT (TOMATO; [10]): 2%; % INJURY 21 DAT (TOMATO; [10]): 8%; % INJURY 28 DAT (TOMATO; [10]): 7%; % INJURY 7 DAT (TOMATO; [11]): 25%; % INJURY 10 DAT (TOMATO; [11]): 27%; % INJURY 14 DAT (TOMATO; [11]): 15%; % INJURY 21 DAT (TOMATO; [11]): 25%; % INJURY 28 DAT (TOMATO; [11]): 22%; % INJURY 7 DAT (TOMATO; [12]): 17%; % INJURY 10 DAT (TOMATO; [12]): 18%; % INJURY 14 DAT (TOMATO; [12]): 20%; % INJURY 21 DAT (TOMATO; [12]): 17%; % INJURY 28 DAT (TOMATO; [12]): 7%

Q: Which pH [2] does the source give for `O=C(O)CNCP(=O)(O)O` [GLYPHOSATE, N-(phosphonomethyl)glycine] here?
A: Its pH is 4.7.

Q: And the “% CONTROL 7 DAT” value (GIANT FOXTAIL; [3])?
A: The value was 39%.

Q: And the “% CONTROL 10 DAT” value (GIANT FOXTAIL; [4])?
A: Its value is 37%.

Q: What about the “% CONTROL 14 DAT” value (GIANT FOXTAIL; [4]) of the same compound?
A: The value was 40%.

Q: What about the “% CONTROL 21 DAT” value (GIANT FOXTAIL; [4]) of the same compound?
A: Its value is 34%.

Q: What about the “% CONTROL 7 DAT” value (GIANT FOXTAIL; [5]) of the same compound?
A: The value was 49%.

Q: And the “% CONTROL 10 DAT” value (GIANT FOXTAIL; [6])?
A: Its value is 48%.

Q: What about the “% CONTROL 14 DAT” value (GIANT FOXTAIL; [6]) of the same compound?
A: Its value is 48%.

Q: What about the “% CONTROL 21 DAT” value (GIANT FOXTAIL; [6]) of the same compound?
A: Its value is 45%.

Q: What about the “% CONTROL 7 DAT” value (VELVETLEAF) of the same compound?
A: Its value is 12%.

Q: And the “% CONTROL 10 DAT” value (VELVETLEAF)?
A: The value was 12%.

Q: What about the “% CONTROL 14 DAT” value (VELVETLEAF) of the same compound?
A: The value was 10%.

Q: And the “% CONTROL 21 DAT” value (VELVETLEAF)?
A: Its value is 6%.
